Consider 31 molecules from publication PMC5681660, “Reduced hepatitis B and D viral entry using clinically applied drugs as novel inhibitors of the bile acid transporter NTCP” (Scientific Reports, 2017).

Structures can show the parent of a compound that is named as a salt. Where two headings read alike, the source gives them in different places. Non-standard residues stand in square brackets, D forms with d. Residues, ends and D or L forms follow the SMILES beside them. *: point of attachment. Sta = CC(C)C[C@H](N)[C@@H](O)CC(=O)O; Isovaleryl = CC(C)CC(=O)*

For assay [1], the target named is T1, human NTCP (Homo sapiens, UniProt Q14973).
T1 sequence (Q14973 1-349): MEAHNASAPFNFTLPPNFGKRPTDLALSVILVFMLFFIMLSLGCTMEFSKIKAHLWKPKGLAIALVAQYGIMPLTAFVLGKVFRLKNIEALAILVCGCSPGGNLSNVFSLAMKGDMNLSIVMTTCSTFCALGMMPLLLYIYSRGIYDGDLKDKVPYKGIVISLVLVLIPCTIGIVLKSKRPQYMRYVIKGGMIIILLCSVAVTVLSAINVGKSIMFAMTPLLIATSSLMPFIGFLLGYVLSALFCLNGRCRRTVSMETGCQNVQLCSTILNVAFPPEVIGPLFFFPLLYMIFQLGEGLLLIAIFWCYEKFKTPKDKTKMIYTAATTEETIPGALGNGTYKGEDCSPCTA
Kind of assay: Screening fluorescent competitive Myrcludex B-FITC binding assay (96-well, 10 µM drug).

Assay [2] concerns the target T1, human NTCP. Kind of assay: Screening taurocholate uptake assay (96-well, [14C]taurocholate, 10 µM drug).
Where [3] appears, read: screen, 10 µM drug, Myrcludex B-FITC binding.
Setting [4] is: combined ranking from functional and binding screening assays.
[5] abbreviates: screen, 10 µM drug, taurocholate uptake.
Where [6] appears, read: Prestwick library screen, Myrcludex B-FITC binding, 10 µM drug.
Where [7] appears, read: Prestwick library screen, taurocholate uptake, 10 µM drug.
Where [8] appears, read: ranking score beside the functional and binding assay B-scores of the screen.
The mark [9] stands for this setting: Prestwick library screen, 10 µM drug, B-score of Myrcludex B-FITC binding.
Where [10] appears, read: Prestwick library screen, 10 µM drug, B-score of taurocholate uptake.
The mark [11] stands for this setting: combined ranking from functional and binding assay B-scores.

`Nc1cc(-c2ccncc2)c[nH]c1=O` [Amrinone] returned a B-score binding assay in assay [1] (setting [3]) of -0.056. Further, in assay [2] (setting [4]), the Ranking score is given as 350.268. This molecule also gave a B-score functional assay in assay [2] (setting [5]) of -1.236.

For the molecule Cyanocobalamin, the B-score binding assay in assay [1] (setting [6]) is given as 0.087. The same molecule returned a B-score functional assay in assay [2] (setting [7]) of 0.223. In assay [2] (setting [8]), this molecule yielded a Ranking score of 774.968.

For `CCCCNC(=O)NS(=O)(=O)c1ccc(C)cc1` [Tolbutamide], the B-score binding assay in assay [1] (setting [3]) is -0.855. For the same molecule, the Ranking score in assay [2] (setting [4]) is reported as 448.765. This molecule yielded a B-score functional assay in assay [2] (setting [5]) of 0.082.

Take `O=C(O)c1ccccc1C(=O)Nc1ccc(S(=O)(=O)Nc2nccs2)cc1` [Phthalylsulfathiazole]: the B-score binding assay in assay [1] (setting [9]) is 1.374. Also, in assay [2] (setting [10]), the B-score functional assay is 1.113. Further, the Ranking score in assay [2] (setting [11]) was determined as 1099.94.

In turn, `CCCCOC(=O)c1ccc(N)cc1` [Butamben] had a B-score binding assay in assay [1] (setting [9]) of 1.315. In assay [2] (setting [10]), this molecule showed a B-score functional assay of 0.768. In addition, the Ranking score in assay [2] (setting [11]) was determined as 1050.86.

In the case of `Nc1ccn([C@@H]2CS[C@H](CO)O2)c(=O)n1` [Lamivudine], the B-score binding assay in assay [1] (setting [3]) is -1.334. Also, the Ranking score in assay [2] (setting [4]) turned out to be 411.191. In addition, the B-score functional assay in assay [2] (setting [5]) is reported as 0.533.

In assay [1] (setting [6]), `CC(=O)Nc1ccc(CC(=O)O)cc1` [Actarit] displayed a B-score binding assay of 1.648. The B-score functional assay in assay [2] (setting [7]) is recorded as -0.304. The molecule also had a Ranking score in assay [2] (setting [8]) of 719.277.

In turn, `CCCCc1ccc2[nH]c(NC(=O)OC)nc2c1` [Parbendazole] gave a B-score binding assay in assay [1] (setting [9]) of 0.33. Moreover, in assay [2] (setting [10]), the B-score functional assay is on record as 1.481. In addition, the Ranking score in assay [2] (setting [11]) is recorded as 989.697.

The molecule `COc1ccc2[nH]cc(CCNC(C)=O)c2c1` [Melatonin] displayed a B-score binding assay in assay [1] (setting [9]) of 0.248. Besides, the B-score functional assay in assay [2] (setting [10]) worked out at 0.509. In assay [2] (setting [11]), the Ranking score was determined as 864.497.

In assay [1] (setting [9]), `CCCC(=O)Nc1ccc(OCC(O)CNC(C)C)c(C(C)=O)c1` (stereo not drawn) [Acebutolol hydrochloride] displayed a B-score binding assay of 0.049. The molecule further returned a B-score functional assay in assay [2] (setting [10]) of 1.681. The Ranking score in assay [2] (setting [11]) is on record as 904.34.

In assay [1] (setting [6]), `COc1ccc2c3c1O[C@H]1C[C@@H](O)C=C[C@@]31CCN(C)C2` [Galanthamine hydrobromide] showed a B-score binding assay of 0.486. This molecule also yielded a B-score functional assay in assay [2] (setting [7]) of 0.072. Further, the Ranking score in assay [2] (setting [8]) amounted to 808.114.

For `COc1cc(C(=O)NC2CCCNC2)cc(OC)c1OC` (stereo not drawn) [Troxipide], the B-score binding assay in assay [1] (setting [9]) turned out to be 2.726. Besides, the B-score functional assay in assay [2] (setting [10]) came out at 0.286. In addition, the Ranking score in assay [2] (setting [11]) was found to be 1019.78.

Consider `CN(C)[C@@H]1C(O)=C(C(N)=O)C(=O)[C@@]2(O)C(O)=C3C(=O)c4c(O)cccc4[C@@](C)(O)[C@H]3C[C@@H]12` [Tetracycline hydrochloride], for which the B-score binding assay in assay [1] (setting [6]) amounted to 0.201. The same molecule gave a B-score functional assay in assay [2] (setting [7]) of 0.067. This molecule also yielded a Ranking score in assay [2] (setting [8]) of 755.57.

In assay [1] (setting [6]), `CC1NC(=O)NC1=O` (stereo not drawn) [Methylhydantoin-5-(L)] yielded a B-score binding assay of -0.07. Besides, the B-score functional assay in assay [2] (setting [7]) is given as 0.737. This molecule also showed a Ranking score in assay [2] (setting [8]) of 746.749.

In assay [1] (setting [9]), `CN(CCCCCCCCCCN(C)C(=O)Oc1cccc([N+](C)(C)C)c1)C(=O)Oc1cccc([N+](C)(C)C)c1` [Demecarium bromide] showed a B-score binding assay of 0.623. This molecule returned a B-score functional assay in assay [2] (setting [10]) of 0.13. Besides, the Ranking score in assay [2] (setting [11]) is 853.475.

As for `NCc1ccc(S(N)(=O)=O)cc1` [Mafenide hydrochloride], the B-score binding assay in assay [1] (setting [6]) was -0.055. For the same molecule, in assay [2] (setting [7]), the B-score functional assay was found to be 0.341. Moreover, in assay [2] (setting [8]), the Ranking score came to 703.397.

In turn, `CC(=O)O[C@H]1CC[C@@]2(C)C(=CC[C@@H]3[C@@H]2CC[C@]2(C)C(=O)CC[C@@H]32)C1` [Dehydroisoandosterone 3-acetate] gave a B-score binding assay in assay [1] (setting [3]) of -0.747. Also, in assay [2] (setting [4]), the Ranking score is on record as 438.862. Moreover, the B-score functional assay in assay [2] (setting [5]) is 0.002.

With `O=C(Cn1ccnc1[N+](=O)[O-])NCCO` [Etanidazole], the B-score binding assay in assay [1] (setting [6]) is 0.108. The molecule further showed a B-score functional assay in assay [2] (setting [7]) of -0.015. The Ranking score in assay [2] (setting [8]) came to 680.728.

In the case of `OCC(O)CN1CCN(c2ccccc2)CC1` (racemic) [Dropropizine (R,S)], in assay [1] (setting [6]), the B-score binding assay turned out to be 0.054. For the same molecule, the B-score functional assay in assay [2] (setting [7]) came out at 0.232. Besides, the Ranking score in assay [2] (setting [8]) stood at 761.407.

In turn, `CCCN(CCC)S(=O)(=O)c1ccc(C(=O)O)cc1` [Probenecid] yielded a B-score binding assay in assay [1] (setting [6]) of 0.597. In addition, the B-score functional assay in assay [2] (setting [7]) is -0.194. The Ranking score in assay [2] (setting [8]) is 677.591.

The molecule `Cc1ccc(C(=O)c2cc(O)c(O)c([N+](=O)[O-])c2)cc1` [Tolcapone] registered a B-score binding assay in assay [1] (setting [3]) of 1.049. In addition, the Ranking score in assay [2] (setting [4]) came to 424.338. Further, in assay [2] (setting [5]), the B-score functional assay is -1.594.

With `COC(=O)N/N=C/c1c[n+]([O-])c2ccccc2[n+]1[O-]` [Carbadox], in assay [1] (setting [9]), the B-score binding assay is given as 0.674. The same molecule yielded a B-score functional assay in assay [2] (setting [10]) of 0.663. Moreover, the Ranking score in assay [2] (setting [11]) is reported as 963.5.

In turn, `C/C(=C(/CCO)SSCC1CCCO1)N(C=O)Cc1cnc(C)nc1N.Cl` (stereo not drawn) [Fursultiamine Hydrochloride] gave a B-score binding assay in assay [1] of 0.087. In addition, in assay [2], the B-score functional assay is given as 1.116 and the Ranking score worked out at 897.109.

For `COc1cc2c(cc1OC)C(C)NCC2.Cl` (stereo not drawn), the B-score binding assay in assay [1] (setting [9]) amounted to 0.343. In addition, the B-score functional assay in assay [2] (setting [10]) was determined as 2.498. Moreover, the Ranking score in assay [2] (setting [11]) amounted to 1023.83.

For the molecule `CN(C)CCCN1c2ccccc2Sc2ccc(C(F)(F)F)cc21` [Triflupromazine hydrochloride], the B-score binding assay in assay [1] (setting [3]) is given as -0.314. The Ranking score in assay [2] (setting [4]) is 447.888. Moreover, in assay [2] (setting [5]), the B-score functional assay is recorded as -0.264.

In the case of `CC(C)(Oc1ccc(Cl)cc1)C(=O)O` [Clofibric acid], in assay [1] (setting [9]), the B-score binding assay is 0.048. In assay [2] (setting [10]), this molecule returned a B-score functional assay of 1.224. In assay [2] (setting [11]), the Ranking score is listed as 881.708.

For `CO[C@@]1(NC(=O)C2SC(=C(C(N)=O)C(=O)O)S2)C(=O)N2C(C(=O)O)=C(CSc3nnnn3C)CS[C@@H]21` (stereo partly drawn) [Cefotetan], the B-score binding assay in assay [1] (setting [6]) was -0.646. In assay [2] (setting [7]), the B-score functional assay stood at 4.862. In addition, the Ranking score in assay [2] (setting [8]) is 655.496.

As to `CN1CCN(CCCN2c3ccccc3Sc3ccc(S(=O)(=O)N(C)C)cc32)CC1.CS(=O)(=O)O.CS(=O)(=O)O` [Thioproperazine dimesylate], the B-score binding assay in assay [1] (setting [9]) is 1.771. The molecule also showed a B-score functional assay in assay [2] (setting [10]) of 0.683. For the same molecule, the Ranking score in assay [2] (setting [11]) turned out to be 1068.06.

Molecule `Cc1cn([C@H]2C=C[C@@H](CO)O2)c(=O)[nH]c1=O` [Stavudine] gave a B-score binding assay in assay [1] (setting [9]) of 0.431. Besides, in assay [2] (setting [10]), the B-score functional assay is 0.865. For the same molecule, the Ranking score in assay [2] (setting [11]) came out at 957.909.

`CC(C)CC(=O)N[C@H](C(=O)N[C@H](C(=O)N[C@@H](CC(C)C)[C@@H](O)CC(=O)N[C@@H](C)C(=O)N[C@@H](CC(C)C)[C@@H](O)CC(=O)O)C(C)C)C(C)C` [Pepstatin A] (Isovaleryl-VV[Sta]A[Sta]-OH) returned a B-score binding assay in assay [1] (setting [6]) of -0.237. Also, in assay [2] (setting [7]), the B-score functional assay is listed as 2.688. Besides, in assay [2] (setting [8]), the Ranking score came out at 763.991.

Turning to `Cn1cc[nH]c1=S` [Methimazole], the B-score binding assay in assay [1] (setting [9]) was determined as 1.226. This molecule also yielded a B-score functional assay in assay [2] (setting [10]) of 0.936. Moreover, the Ranking score in assay [2] (setting [11]) worked out at 1068.39.
